Laboratory results from ChEMBL document CHEMBL1128537, “The squalestatins: synthesis and biological activity of some C3-modified analogues; replacement of a carboxylic acid or methyl ester with an isoelectronic heterocyclic functionality” (J Med Chem, 1995).

Target: T1, Squalene synthase (Rattus norvegicus, UniProt Q02769)
T1 sequence (Q02769 whole entry): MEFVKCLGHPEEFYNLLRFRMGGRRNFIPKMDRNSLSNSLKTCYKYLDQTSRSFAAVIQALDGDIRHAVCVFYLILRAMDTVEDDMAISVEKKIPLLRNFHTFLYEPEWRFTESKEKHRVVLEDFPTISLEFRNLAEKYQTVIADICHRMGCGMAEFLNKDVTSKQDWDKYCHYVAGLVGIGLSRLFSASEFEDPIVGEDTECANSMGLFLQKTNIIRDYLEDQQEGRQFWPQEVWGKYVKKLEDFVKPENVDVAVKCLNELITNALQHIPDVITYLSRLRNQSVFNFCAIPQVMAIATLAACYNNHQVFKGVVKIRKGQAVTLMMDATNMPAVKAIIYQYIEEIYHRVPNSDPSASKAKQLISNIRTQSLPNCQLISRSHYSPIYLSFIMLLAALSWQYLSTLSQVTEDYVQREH
Test: In vitro for inhibitory activity against Squalene synthase in rat

SMILES | IC50 [nM]
C=C(CC[C@]12O[C@H](c3csc(NC)n3)[C@@](O)(C(=O)O)[C@](C(=O)O)(O1)[C@H](O)[C@H]2O)[C@@H](C(C)=O)[C@H](C)Cc1ccccc1 | 1180
C=C(CC[C@]12O[C@H](c3nc(C)no3)[C@@](O)(C(=O)O)[C@](C(=O)O)(O1)[C@H](O)[C@H]2O)[C@@H](C(C)=O)[C@H](C)Cc1ccccc1 | 310
C=C(CC[C@]12O[C@H](c3cnc[nH]3)[C@@](O)(C(=O)O)[C@](C(=O)O)(O1)[C@H](O)[C@H]2O)[C@@H](C(C)=O)[C@H](C)Cc1ccccc1 | 785
C=C(CC[C@]12O[C@H](c3nnc(S)n3C)[C@@](O)(C(=O)O)[C@](C(=O)O)(O1)[C@H](OC(=O)/C=C/[C@@H](C)C[C@@H](C)CC)[C@H]2O)[C@@H](C(C)=O)[C@H](C)Cc1ccccc1 | 172
C=C(CC[C@]12O[C@H](c3n[nH]c(=S)n3C)[C@@](O)(C(=O)O)[C@](C(=O)O)(O1)[C@H](O)[C@H]2O)[C@@H](C(C)=O)[C@H](C)Cc1ccccc1 | 1940
C=C(CC[C@]12O[C@H](c3nc(C)no3)[C@@](O)(C(=O)O)[C@](C(=O)O)(O1)[C@H](OC(=O)/C=C/[C@@H](C)C[C@@H](C)CC)[C@H]2O)[C@@H](C(C)=O)[C@H](C)Cc1ccccc1 | 72
C=C(CC[C@]12O[C@H](c3csc(C)n3)[C@@](O)(C(=O)O)[C@](C(=O)O)(O1)[C@H](O)[C@H]2O)[C@@H](C(C)=O)[C@H](C)Cc1ccccc1 | 2880
C=C(CC[C@]12O[C@H](c3csc(N)n3)[C@@](O)(C(=O)O)[C@](C(=O)O)(O1)[C@H](OC(=O)/C=C/[C@@H](C)C[C@@H](C)CC)[C@H]2O)[C@@H](C(C)=O)[C@H](C)Cc1ccccc1 | 63
C=C(CC[C@]12O[C@H](c3nnn(C)n3)[C@@](O)(C(=O)O)[C@](C(=O)O)(O1)[C@H](O)[C@H]2O)[C@@H](C(C)=O)[C@H](C)Cc1ccccc1 | 156
C=C(CC[C@]12O[C@H](c3nnc(NC)o3)[C@@](O)(C(=O)O)[C@](C(=O)O)(O1)[C@H](O)[C@H]2O)[C@@H](C(C)=O)[C@H](C)Cc1ccccc1 | 147
C=C(CC[C@]12O[C@H](C(=O)OC)[C@@](O)(C(=O)O)[C@](C(=O)O)(O1)[C@H](O)[C@H]2O)[C@@H](C(C)=O)[C@H](C)Cc1ccccc1 | 220
C=C(CC[C@]12O[C@H](c3cscn3)[C@@](O)(C(=O)O)[C@](C(=O)O)(O1)[C@H](O)[C@H]2O)[C@@H](C(C)=O)[C@H](C)Cc1ccccc1 | 505
C=C(CC[C@]12O[C@H](c3nnc(NC)o3)[C@@](O)(C(=O)O)[C@](C(=O)O)(O1)[C@H](OC(=O)/C=C/[C@@H](C)C[C@@H](C)CC)[C@H]2O)[C@@H](C(C)=O)[C@H](C)Cc1ccccc1 | 10
C=C(CC[C@]12O[C@H](c3nnn[nH]3)[C@@](O)(C(=O)O)[C@](C(=O)O)(O1)[C@H](O)[C@H]2O)[C@@H](C(C)=O)[C@H](C)Cc1ccccc1 | 25
C=C(CC[C@]12O[C@H](c3nnn[nH]3)[C@@](O)(C(=O)O)[C@](C(=O)O)(O1)[C@H](OC(=O)/C=C/[C@@H](C)C[C@@H](C)CC)[C@H]2O)[C@@H](C(C)=O)[C@H](C)Cc1ccccc1 | 4
C=C(CC[C@]12O[C@H](C(=O)OC)[C@@](O)(C(=O)O)[C@](C(=O)O)(O1)[C@H](OC(=O)/C=C/[C@@H](C)C[C@@H](C)CC)[C@H]2O)[C@@H](C(C)=O)[C@H](C)Cc1ccccc1 | 7
C=C(CC[C@]12O[C@H](c3nnnn3C)[C@@](O)(C(=O)O)[C@](C(=O)O)(O1)[C@H](OC(=O)/C=C/[C@@H](C)C[C@@H](C)CC)[C@H]2O)[C@@H](C(C)=O)[C@H](C)Cc1ccccc1 | 57
C=C(CC[C@]12O[C@H](c3csc(NC)n3)[C@@](O)(C(=O)O)[C@](C(=O)O)(O1)[C@H](OC(=O)/C=C/[C@@H](C)C[C@@H](C)CC)[C@H]2O)[C@@H](C(C)=O)[C@H](C)Cc1ccccc1 | 146
C=C(CC[C@]12O[C@H](c3cscn3)[C@@](O)(C(=O)O)[C@](C(=O)O)(O1)[C@H](OC(=O)/C=C/[C@@H](C)C[C@@H](C)CC)[C@H]2O)[C@@H](C(C)=O)[C@H](C)Cc1ccccc1 | 92
C=C(CC[C@]12O[C@H](c3nnn(C)n3)[C@@](O)(C(=O)O)[C@](C(=O)O)(O1)[C@H](OC(=O)/C=C/[C@@H](C)C[C@@H](C)CC)[C@H]2O)[C@@H](C(C)=O)[C@H](C)Cc1ccccc1 | 43
C=C(CC[C@]12O[C@H](c3nnnn3C)[C@@](O)(C(=O)O)[C@](C(=O)O)(O1)[C@H](O)[C@H]2O)[C@@H](C(C)=O)[C@H](C)Cc1ccccc1 | 442
C=C(CC[C@]12O[C@H](c3nnc(C)[nH]3)[C@@](O)(C(=O)O)[C@](C(=O)O)(O1)[C@H](O)[C@H]2O)[C@@H](C(C)=O)[C@H](C)Cc1ccccc1 | 312
C=C(CC[C@]12O[C@H](c3csc(C)n3)[C@@](O)(C(=O)O)[C@](C(=O)O)(O1)[C@H](OC(=O)/C=C/[C@@H](C)C[C@@H](C)CC)[C@H]2O)[C@@H](C(C)=O)[C@H](C)Cc1ccccc1 | 357
